According to patent US20100184644A1, “MUCOSAL REPAIR BY TFF DIMER PEPTIDES” (priority 2001, published 2010):
No end group written: not given here.

Key:
[1] = test system: Mitomycin C induced colitis; experiment: Mitomycin C induced colitis model, luminal TFF3; type: in vivo, rat
Text: (§1) Methods: 32 female wistar rats weighing 200 g were used in the study. The effect of luminal TFF3 was investigated in two rat models of colitis—the Mitomycin C induced colitis model (Keshavarzian A. et al. J. Lab Clin. Med. 1992; 120:778-91) and the dextran induced colitis model (Mottet N K. Gastroenterology 1972; 62:1269-71). TFF3 was administrated directly into the proximal part of the colon by means of a soft polyethylene tube which in anaesthezised rats at a laparotomy, was inserted into the colonic lumen, secured by 6-0 silk sutures and lead subcutaneously to the neck region of the rat.
Mitomycin C colitis: In 16 rats colitis was induced by means of Mitomycin C, 3.75 mg/kg. Eight of the rats were given TFF3, 5 mg/kg in 0.5 ml H2O, two times each day from day 4-7 into the colonic tube. The 8 controls received NaCl. The rats were sacrificed by means of an overdose of barbiturate 8 days after mitomycin administration. The colon was fixed by intraluminal injection of 10% formalin, and after 10 minutes opened and suspended on a polyethylene plate. […] The colonic specimens were investigated by means of a Wild Photomacroscope—the extent of disease and the number of ulcerations were quantitated. […] The severety of colitis was scored by means of a histologic colitis score (FIG. 5, Williams K L. et al. Gastroenterology 2001; 120:925-37).

dextran induced colitis = experiment: Dextran induced colitis model, luminal TFF3; type: in vivo, rat
Text: as §1
Dextran colitis: In 16 rats colitis was induced by means of dextran sulphate sodium 5% administered in the drinking water. Eight of the rats were given TFF3, 5 mg/kg in 0.5 ml H2O into the colonic tube, two times each day from the day before the initiation of dextran supplementation till day 9, where the rats were sacrificed. The 8 controls recieved NaCl. The rats were sacrificed by means of an overdose of barbiturate. The colon was fixed by intraluminal injection of 10% formalin, and after 10 minutes opened and suspended on a polyethylene plate. After further 24 hours fixation the specimens were flushed with water and surface stained with 0.3% Alcian Green 3BX. The colonic specimens were investigated by means of a Wild Photomacroscope—the extent of disease and the number of ulcerations were quantitated. For histologic analysis specimens were taken out (in a blinded way) from the proximal, middle and distal colon and embedded in paraffin. Histologic sections of 5 μm were stained with PAS-hematoxylin-aurentia. The severety of colitis was scored by means of a histologic colitis score (Williams K L. et al. Gastroenterology 2001; 120:925-37).

[2] = test system: mucin I (crude mucin, type II from porcine stomach); experiment: Viscosity versus shear rate (constant rate rheometer programme); settings: 2 ml 10% (w/v) mucin I + 7.05 mg TFF3 dimer; 30 min, 20° C.; FIG. 4
Method: FIG. 4. Viscosity versus shear rate of TFF3 dimer peptides. 2 ml 10% (w/v) mucin I dissolved in 0.05% sodiumazide was added 7.05 mg TFF3 dimer dissolved in water. After 30 min at 20° C. the viscosity was measured as function of shear rate using the software programme: “constant rate”. ? mucin I alone; Δ—Δ: mucin I+TFF3 dimer.
(§2) Rheological measurements. Rheological properties were measured by the use of a rotational Reologica Rheometer (Reologica Instriments AB, Lund, Sweden). The instrument is equipped with a stainless steel C40 4 cone-plate (40 mm diameter plate with an angle of 4 degree) requiring a sample volume of at least 1.2 ml. The instrument was operated using instrument standard software (Version 3.6) allowing several different types of measurements. In the present study we have used the measuring programs: Constant Rate (viscosity and stress as a function of shear rate), Oscillation (complex viscosity, elastic modulus and viscous modulus at different frequencies) and Oscillation Stress Sweep (to identify the stress range inside which the measurement results are linear i.e. independent of the applied stress).

[3] = test system: mucin I (crude mucin, type II from porcine stomach); experiment: Oscillatory rheometer measurement of mucin solution and mucin/TFF3 dimer gel-like material; settings: for Elastic modules G′ / Viscous modulus G″: 2 ml 10% (w/v) mucin I + 10 mg TFF3 dimer in 0.4 ml water, 30 min, 20° C.
Method: FIG. 3. Oscillatory measurement of mucin solution (a) and mucin/TFF3 dimer peptide gel-like material (b). 2 ml of 10% (w/v) mucin I dissolved in 0.05% (w/v) sodiumazide was added 0.4 ml of water (a) or 0.4 ml of water containing 10 mg TFF3 dimer peptide (b). After 30 min at 20° C. a sinosoidally varying stress was applied and the strain response was detected at different frequencies. The complex viscosity (η*) ? the elastic modulus (G′) ? and the viscous modulus (G″) ? was calculated and plotted as a function of different frequencies.
as §2
In order to characterise the mucin/TFF dimer peptide gel-like structure, the technique of oscillatory measurement in which the gel-like material are subjected to a sinusoidaily varying stress is applied and the strain response is measured. Before this measurement is carried out an oscillation stress sweep programme is used to define the so-called linear viscoelastic region. Inside this region no change of the mucin/TFF dimer peptide structure occurs and the relation between the applied stress and the measured quantities is linear.
This type of experiments allow the estimation of several rheological parameters as a function of frequency: complex viscosity η*, elastic modulus G′ and viscous modulus G″ (for detailed rheological theory see Barnes, H. A. (1989) An introduction to rheology. Elsevier and Ferguson, J. and Kemblowski, Z. (1991) Applied fluid rheology. Elsevier)

TFF3: trefoil factor 3 given intraluminally to rats; Example 2 does not state monomer or dimer form (EEYVGLSANQCAVPAKDRVDCGYPHVTPKECNNRGCCFDSRIPGVPWCFKPLQEAECTF; not fully specified (bridges); cysteine pairing not given here; UniProt Q07654 22-80, looked up)
Overall colitis score (histologic) ([1]; rat, TFF3 5 mg/kg intraluminal twice daily day 4-7, control (NaCl) 10.8, p<0.01): 3.4 | Severity of mitomycin induced colitis ([1]; rats, intraluminal treatment): reduces the severity | Overall colitis score (histologic) (dextran induced colitis; rat, TFF3 5 mg/kg intraluminal twice daily till day 9, control (NaCl) 3.18, p<0.05): 1.1 | Histologic colitis score in the midsegment of the colon (dextran induced colitis; rat, TFF3 5 mg/kg intraluminal twice daily, control 1.8, p<0.05): 0.4 | Severity of dextran induced colitis (dextran induced colitis; rats, intraluminal treatment): reduces the severity

TFF3 dimer: dimer form of recombinant human TFF3; two TFF3 monomers linked by a disulfide bond between Cys57 of each monomer (EEYVGLSANQCAVPAKDRVDCGYPHVTPKECNNRGCCFDSRIPGVPWCFKPLQEAECTF; not fully specified (bridges); also: homodimer via disulfide between Cys57 of each monomer)
Effect on the viscosity of the mucin I solution [2]: significant effect | Elastic modules G′ ([3]; 0.01 Hz): 19 Pa | Viscous modulus G″ ([3]; 0.01 Hz): 18 Pa | Elastic modules G′ ([3]; 0.1 Hz): 52 Pa | Viscous modulus G″ ([3]; 0.1 Hz): 37 Pa | Elastic modules G′ ([3]; 1 Hz): 86 Pa | Viscous modulus G″ ([3]; 1 Hz): 54 Pa | Elastic modulus and viscous modulus compared to the mucin solution ([3]; mucin/TFF3 dimer gel-like structure vs mucin solution): dramatically increased
